Source: patent US9789096B2, “Methods and compositions for selective and targeted cancer therapy” (Board of Regents of the University of Texas System, priority 2013, dated 2017)

Experiments:
[1] = target: T1, HMOX2 (Homo sapiens, UniProt P30519); experiment: HMOX2 activity in H2122 cell homogenate (bilirubin production); format: biochemical
T1 construct: endogenous in cells; host or cells: H2122 cells (homogenate / lysate)
Experimental: FIG. 7N. Oxalamide inhibits the activity of HMOX2 in vitro. H2122 cell homogenate was incubated with varying concentrations of SW208108 in the presence of excess NADPH, NADPH cytochrome reductase, and biliverdin reductase. The samples were extracted with chloroform and absorbance was measured at 450 nm refecting bilirubin production.
(§1) However, when HO2 was knocked out from H2122 cells using Crisper technology (FIG. 7O), no toxicity was observed, and SW208108 and related compounds retained toxicity towards H2122 cells (FIG. 7P). We conclude that HO2 is not required for cell survival or for the cytotoxicity of the selective toxins.

[2] = target: T1, HMOX2; experiment: Immunoprecipitation of SW208108-bound protein with anti-HMOX2; format: binding
Description: FIG. 7M. HMOX2 binds to SW208108 and is partially competed by an active competitor. Lysates collected from H2122 cells treated with SW208108 with or without competitor were immunoprecipitated with either IgG or anti-HMOX2 and then “clicked” to a dye-azide (as described in FIG. 7A). HMOX2 binds to SW208108 and binding is partially diminished in the presence of a competitor.
as §1

[3] = target: T2, SCD1 (Homo sapiens, UniProt O00767); experiment: Immunoprecipitation of SW208108-bound protein with anti-SCD1; format: binding; parameters: The fluorescent bands confirm that p30 and p37 represent isoforms of SCD1; endogenous in cells; host or cells: H2122 cells
T2 sequence (O00767 1-359): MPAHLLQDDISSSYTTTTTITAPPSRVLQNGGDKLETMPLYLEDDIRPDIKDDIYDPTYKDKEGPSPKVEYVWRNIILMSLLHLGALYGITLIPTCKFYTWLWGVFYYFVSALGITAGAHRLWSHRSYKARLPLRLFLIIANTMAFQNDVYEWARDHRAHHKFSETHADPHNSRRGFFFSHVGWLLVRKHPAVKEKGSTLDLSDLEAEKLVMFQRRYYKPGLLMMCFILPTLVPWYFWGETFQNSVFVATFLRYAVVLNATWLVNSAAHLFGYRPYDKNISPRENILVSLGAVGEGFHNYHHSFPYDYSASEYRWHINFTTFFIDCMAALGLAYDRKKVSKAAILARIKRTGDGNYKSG
Experimental: FIG. 7L. Antibodies against SCD1 (Pierce) immunoprecipitate SW208108-bound protein. Samples were prepared as in FIG. 7A, and immunoprecipitated with either anti-SCD1 or IgG. The fluorescent bands confirm that p30 and p37 represent isoforms of SCD1.
SCD1 is the functional target of the oxalamides, benzothiazoles, chromones, and related derivatives. Covalent binding of SW208108 to SCD1 was confirmed by incubating cells in the presence of SW208108, lysing them, immunoprecipitating with antibodies to SCD1, and then clicking drug-bound proteins to a dye.

[4] = test system: H2122 clones; experiment: Toxicity to H2122 clones with loss of HMOX2; format: cell-based, human
Experimental: FIG. 7O. H2122 cells were engineered to have homozygous or heterozygous loss of HMOX2. hCas9 and guide RNA's targeting HMOX2 were co-expressed in H2122 cells and then cells were individually cloned. Individual clones were raised and analyzed for HMOX2 expression.
FIG. 7P. HMOX2 loss has no impact on the sensitivity of cells to SW208108. A dose response curve assaying the toxicity of SW208108 to H2122 clones identified in FIG. 7O was determined. There is no correlation between HMOX2 expression and SW208108 potency.
as §1

[5] = test system: H2122 cells; experiment: Lipid ratios in H2122 cells by MS/MS; format: cell-based, human; settings: 100 nM, within 6 hours
Experimental: FIG. 8A. Covalent binders of SCD1 affect lipid ratios in human cancer cells. H2122 cells were treated with 100 nM SW208108 for the indicated times before a lipid extraction was performed. Lipid extracts were analyzed by MS/MS in order to determine the fractional content of 8 different lipid species including triacylglycerols (TAG) and diacylglycerols (DAG). In MS/1, the total number of carbons and number of unsaturated bonds was determined for all of the fatty acid chains. For example, TAG (50:3) is a triacylglycerol with 3 fatty acid chains that all together have 50 carbons and 3 unsaturated bonds. The mass for one of these fatty acids was determined in MS/2 and is listed as noted by its carbon length and unsaturated bond number using the same notation.
SCD1 catalyzes the dehydrogenation of saturated fatty acid-CoA's to form unsaturated fatty acid-CoA's. For example, the enzyme gets its name from the conversion of stearic acid-CoA to oleic acid-CoA. For this reason, inhibition SCD1 was expected to alter the ratio of saturated:unsaturated fatty acids.

[6] = test system: H2122 cells; experiment: Covalent labelling of proteins in H2122 cells (click to fluorescent azide, SDS-PAGE); format: cell-based, human
Experimental: FIG. 7A. […] H2122 cells were treated with the indicated concentrations of SW208108 for 4 h followed by irradiation with a UV light or no irradiation. Cells were then lysed, protein was precipitated, resuspended in buffer and conjugated to an azide-containing dye using Cu catalysis following standard protocols. Samples were resolved under denaturing conditions on an SDS-PAGE gel and visualized using a fluorescent imager at the indicated wavelengths.
FIG. 7B. Chromone and Benzothiazole alkynes, like the oxalamide, covalently bind proteins of similar molecular weight. The arrows indicate a 37 kD and 30 kD band common to all three scaffolds.
To identify the target of the benzothiazoles, oxalamides, N-acyl ureas and chromones, we generated a potent oxalamide, SW208108, that features both a “crosslinker” and a “tag”. Upon exposure to UV light, the benzophenone group becomes reactive and was anticipated to crosslink to a nearby amino acid, and the alkyne serves as a “tag” by its capacity to react with an azide through “click chemistry”. Combining these features, we treated H2122 cells with various concentrations of SW208108 and either cultured them normally (“−UV”) or irradiated them briefly with UV light (“+UV”). Subsequently, we “clicked” the resulting lysate to a fluorescent azide, and detected multiple fluorescently labeled proteins on SDS-PAGE (FIG. 7A). […]

T1 sequence (P30519 whole entry): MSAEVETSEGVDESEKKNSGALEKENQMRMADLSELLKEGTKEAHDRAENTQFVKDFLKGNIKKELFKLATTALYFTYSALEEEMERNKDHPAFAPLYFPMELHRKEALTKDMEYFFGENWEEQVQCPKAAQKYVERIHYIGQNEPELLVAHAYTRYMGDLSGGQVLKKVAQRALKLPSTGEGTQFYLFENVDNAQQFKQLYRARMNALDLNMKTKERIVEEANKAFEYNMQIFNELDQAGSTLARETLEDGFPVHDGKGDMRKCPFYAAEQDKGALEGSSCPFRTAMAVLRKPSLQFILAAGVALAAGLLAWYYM

With `C#CCOc1ccc(C(=O)c2ccc(NC(=O)C(=O)NCCc3ccc(OC)cc3)cc2)cc1` [SW208108] the “activity of HMOX2 in vitro” value [1] was “inhibits”, the “covalent binding to HO2 (HMOX2)” value [2] was “covalently bound” and the “covalent binding to SCD1 (immunoprecipitation)” value [3] was “confirmed”. The “impact of HMOX2 loss on sensitivity of H2122 clones” value [4] was “no impact”, the “saturated vs unsaturated fatty acids in neutral lipids” value [5] was “increased the percentage of neutral lipids containing saturated fatty acids” and the “covalent modification of proteins (p37, p30) in H2122 cells without UV” value [6] was “covalently cross links proteins”.
